The results in this text go back to publication PMC5063576, “High Potency VEGFRs/MET/FMS Triple Blockade by TAS-115 Concomitantly Suppresses Tumor Progression and Bone Destruction in Tumor-Induced Bone Disease Model with Lung Carcinoma Cells” (PLoS ONE, 2016).

Test [1] has as its target T1, Recombinant human FMS dephosphorylated with lambda phosphatase (dephospho-rhFMS) (Homo sapiens, UniProt P07333).
T1 sequence (P07333 538-972): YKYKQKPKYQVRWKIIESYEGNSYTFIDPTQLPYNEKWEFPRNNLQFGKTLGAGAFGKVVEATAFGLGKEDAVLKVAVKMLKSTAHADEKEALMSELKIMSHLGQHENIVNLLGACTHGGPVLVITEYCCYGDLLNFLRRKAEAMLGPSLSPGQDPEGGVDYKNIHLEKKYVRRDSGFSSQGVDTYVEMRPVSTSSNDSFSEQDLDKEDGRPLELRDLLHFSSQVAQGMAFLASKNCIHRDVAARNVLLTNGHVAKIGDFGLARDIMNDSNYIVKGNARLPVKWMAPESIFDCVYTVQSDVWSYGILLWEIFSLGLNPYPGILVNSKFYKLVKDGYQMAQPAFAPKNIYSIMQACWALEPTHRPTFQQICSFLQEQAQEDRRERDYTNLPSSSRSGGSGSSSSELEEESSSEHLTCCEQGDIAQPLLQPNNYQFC
In words: In vitro kinase assay, recombinant dephospho-FMS (LANCE Ultra TR-FRET). To be noted: 100 μM ATP. In kind it is biochemical. The procedure: (§1) Enzyme inhibition studies were performed using LANCE® Ultra TR-FRET assay technology. Briefly, 0.03 μg/mL dephospho-rhFMS and 100 nM ULightTM-poly GT (4:1) (PerkinElmer) were mixed and incubated for 40 min at 25°C in 10 μL of reaction mixture containing 100 μM ATP, 15 mM tris (hydroxymethyl) aminomethane (Tris (pH 7.5)), 0.01% (v/v) Tween 20, 5 mM MgCl2, 2 mM dithiothreitol and various concentrations of the test compound. […] By referring to the TR-FRET signals of positive (no inhibitor) and negative (EDTA was added before the reaction was started) control wells, the percent inhibition of each well was calculated and the half-maximal inhibitory concentration (IC50) value was determined using a four-parameter sigmoidal equation. The assay of MET and VEGFR2 kinase activity was performed as described previously.
On the technique in general: In TR-FRET formats the signal depends on donor and acceptor labels being close together.

In another test the target is MET (Homo sapiens, UniProt P08581). Description: In vitro kinase assay, MET. In kind it is biochemical. The following applies: assay as described previously [16]. The protocol: as §1
In test [2] the test system is FMS phosphorylation in human acute monocytic THP-1 leukemia cells. In words: M-CSF-induced FMS phosphorylation in THP-1 cells (immunoblotting). In kind it is cell-based. To be noted: 2 h, 120 min compound incubation, 30 ng/mL M-CSF, read-out: cellular IC50 against M-CSF-induced FMS phosphorylation. The protocol:
Supplementary file pone.0164830.s005.tif: S5 Fig The inhibition of the FMS signaling pathway in human acute monocytic leukemia THP-1 cells by TAS-115. […] After incubation with the compounds for 120 min, THP-1 cells were stimulated with 30 ng/mL of M-CSF and lysed at 1 min post M-CSF stimulation. Specific proteins in the cell lysates were detected using immune blotting and were quantified using Multi Gauge Ver 3.2 (FUJIFILM). IC50 values were calculated using Xlfit 5.3.0.8 (CTC Life Science Corporation, Tokyo, Japan). (TIF) Click here for additional data file.

The subject of test [3] is A549-Luc-BM1 cells in the mouse tibia. Description: Tumor-induced bone disease model, intra-tibial A549-Luc-BM1, bioluminescence imaging. In kind it is in vivo, BALB/c nude mice. To be noted: day 28; 4 weeks; oral once daily TAS-115 200 mg/kg, cabozantinib 15 mg/kg, sunitinib 40 mg/kg, crizotinib 100 mg/kg; ZA 0.2 mg/kg s.c. twice weekly. The procedure: Tumor growth in the tibiae was monitored by bioluminescence imaging using an IVIS Lumina II Imaging System (PerkinElmer, MA). […] Images were analyzed using the Living Image 3.1 software (PerkinElmer). Total photon flux (TP) was calculated by summation of the photon flux of ventral and right lateral images. One week post tumor implantation, 8–9 animals were allocated to each experimental group by a stratified randomization method with SAS version 9.2 (SAS Institute Japan, Tokyo, Japan) using TP as an allocation parameter, following which drug treatment was then started. […] The doses of each drug were selected based on the maximum tolerated dose (MTD) in in-house studies (data not shown). […] Zoledronic acid (ZA) was subcutaneously injected twice weekly for 4 weeks at a dose of 0.2 mg/kg, which was a previously reported efficacious dose. The allocation day was set as day 0, and drug administration was initiated from day 1. As an indicator of changes in tumor growth during the dosing period, relative total photon flux (RTP), was calculated according to the following formula: RTPday n = (TP on each measurement day) / (TPday 0) × 100. TPday 0 is the TP on the allocation day.

The subject of test [4] is A549-Luc-BM1-implanted tibia. Description: Bone morphometrical analyses by micro-CT. To be noted: micro-CT after 4 weeks dosing; TAS-115 200, cabozantinib 15, sunitinib 40, crizotinib 100 mg/kg oral; vs control. The class given is in vivo, BALB/c nude mice. The protocol:
On day 29, the mice were euthanized by cervical dislocation under isoflurane anesthesia, and subsequently the A549-Luc-BM1-implanted tibia was removed and was fixed in 4% paraformaldehyde solution. Micro-CT imaging was performed by using Rm_CT2 (Rigaku corporation, Tokyo, Japan) with the following parameters: 90 kV, 160 μA, 3 min exposure, 10 mm field of view (20 μm voxel size). After scanning, 3D reconstruction was performed to produce a series of cross-sectional images by using specific software (3D Viewer Version 3.00.01, Rigaku corporation). In addition, bone mineral density (BMD) and 3D morphometrical primary parameters, including total volume (TV) and bone volume (BV), were calculated by using bone microstructure software (TRI/3D-BON-FCS64, Ratoc System Engineering, Tokyo, Japan). Volumetric BMD (vBMD), which has been reported to be a good index of osteoporosis, was calculated from primary parameters using the following formula: vBMD = BMD × BV / TV.

The subject of test [5] is MET phosphorylation in MDBMs. Description: In vitro MDBM signaling, rhHGF-induced MET phosphorylation. The class given is cell-based, mouse. To be noted: rhHGF 100 ng/mL 10 min, Western blotting. The procedure: For analysis of the expression and phosphorylation levels of FMS, MET and VEGFR2, MDBMs were cultured with hM-CSF (20000 U/mL) for 4 days (400000 cells/dish in Suspension Culture Dishes (Corning Inc., NY). The phosphorylation levels of FMS and downstream signaling molecules were then analyzed in these MDBMs following incubation for 1 hr with test compounds at the indicated concentration. The phosphorylation of MET or VEGFR2 was analyzed in these MDBMs following stimulation with rhHGF (100 ng/mL, 10 min) or rhVEGF (100 ng/mL, 5 min), respectively. After incubation, the MDBMs were harvested, the cells were lysed and target signaling proteins were detected by immunoblotting. For analysis of VEGFR2 and its phosphorylated form, the lysate was immunoprecipiated with an anti-VEGFR antibody prior to immunoblotting.

Chain of MET (P08581 25-1390): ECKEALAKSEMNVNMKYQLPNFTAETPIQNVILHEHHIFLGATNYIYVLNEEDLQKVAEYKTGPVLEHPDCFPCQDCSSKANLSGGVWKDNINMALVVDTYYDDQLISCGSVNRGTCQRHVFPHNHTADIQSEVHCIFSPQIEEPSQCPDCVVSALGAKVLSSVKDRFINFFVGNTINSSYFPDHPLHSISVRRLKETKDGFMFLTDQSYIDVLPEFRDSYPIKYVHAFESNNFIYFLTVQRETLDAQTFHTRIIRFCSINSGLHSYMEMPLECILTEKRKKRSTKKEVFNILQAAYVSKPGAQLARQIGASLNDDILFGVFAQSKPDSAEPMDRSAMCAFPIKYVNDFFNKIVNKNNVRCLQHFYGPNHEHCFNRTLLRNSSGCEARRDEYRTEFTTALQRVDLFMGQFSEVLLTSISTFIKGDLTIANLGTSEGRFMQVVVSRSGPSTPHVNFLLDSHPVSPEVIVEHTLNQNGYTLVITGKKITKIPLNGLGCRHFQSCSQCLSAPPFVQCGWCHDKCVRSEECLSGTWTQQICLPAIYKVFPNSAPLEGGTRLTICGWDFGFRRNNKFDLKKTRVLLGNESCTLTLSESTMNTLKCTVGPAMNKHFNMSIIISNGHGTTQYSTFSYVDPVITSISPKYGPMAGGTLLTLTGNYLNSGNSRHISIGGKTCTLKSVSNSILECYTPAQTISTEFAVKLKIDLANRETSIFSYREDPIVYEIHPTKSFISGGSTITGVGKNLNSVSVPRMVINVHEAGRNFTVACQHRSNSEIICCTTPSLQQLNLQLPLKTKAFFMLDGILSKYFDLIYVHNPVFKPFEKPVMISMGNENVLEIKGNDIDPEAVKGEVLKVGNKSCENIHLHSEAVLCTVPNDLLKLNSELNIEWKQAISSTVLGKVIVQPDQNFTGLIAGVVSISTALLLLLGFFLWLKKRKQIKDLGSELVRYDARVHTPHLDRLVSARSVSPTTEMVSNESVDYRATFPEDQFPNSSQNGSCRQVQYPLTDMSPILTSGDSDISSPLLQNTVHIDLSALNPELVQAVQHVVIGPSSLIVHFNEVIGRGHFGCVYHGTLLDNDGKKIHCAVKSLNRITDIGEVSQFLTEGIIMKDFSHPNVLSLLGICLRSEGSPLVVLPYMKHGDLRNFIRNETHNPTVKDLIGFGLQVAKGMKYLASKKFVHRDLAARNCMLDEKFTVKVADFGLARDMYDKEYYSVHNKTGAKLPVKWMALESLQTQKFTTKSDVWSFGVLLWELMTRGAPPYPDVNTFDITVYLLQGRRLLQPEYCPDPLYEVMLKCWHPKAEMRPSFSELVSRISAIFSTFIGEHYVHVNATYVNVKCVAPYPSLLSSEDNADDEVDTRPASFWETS

The term IC50 denotes the concentration at which inhibition is half-maximal. On to `CNC(=O)c1cc2c(Oc3ccc(NC(=S)NC(=O)Cc4ccccc4)cc3F)ccnc2cc1OC` [TAS-115, 4-[2-fluoro-4-[[[(2-phenylacetyl)amino]thioxomethyl]amino]-phenoxy] -7-methoxy-N-methyl-6-quinolinecarboxamide], for which the IC50 was determined as 15 nM in test [1], 32 nM against MET and 12 nM in test [2]. In addition, the “tumor growth inhibition percentage (TGI)” value in test [3] turned out to be 85%. Also, the “A549-Luc-BM1-induced changes in bone parameters (BV, TV, BMD, vBMD)” value in test [4] is on record as “significantly suppressed all of the changes”. Moreover, in test [5], the “concentration inhibiting the phosphorylation of MET” value was “greater than 0.03 μM”.
